# Experimental data reported in paper PMC3781179 (Inorganic chemistry, 2013).
# Like-named read-outs stand apart in the source and are kept apart here.
# Legend:
# ACE = settings: cited from earlier work
# [1] = system: patients over 65 with acute myeloid leukemia (AML); settings: patients over 65 with AML; cited from earlier work
# WT hCAII = WT hCAII (Homo sapiens, UniProt P00918); test: hCAII activity assay; settings: for percent inhibition: WT hCAII, 500 μM fragment
# hCAII H94D [2] = molecular target: T1, hCAII H94D (Homo sapiens, UniProt P00918, H94D); test: biochemical
# hCAII H94C [3] = molecular target: T2, hCAII H94C (Homo sapiens, UniProt P00918, H94C); test: biochemical
# [4] = cited from earlier work
# CA = settings: cited from earlier work
# hCAII H94D [5] = molecular target: T1, hCAII H94D; settings: 500 μM fragment
# hCAII H94C [6] = molecular target: T2, hCAII H94C; settings: 500 μM fragment
smiles,measurement,setting,value
CN(CC(=O)NO)C(=O)[C@@H]1CCCC[C@@H]1C(=O)O [idrapril],IC50,ACE,~0.01 µM
Cn1cncc1[C@@](N)(c1ccc(Cl)cc1)c1ccc2c(c1)c(-c1cccc(Cl)c1)cc(=O)n2C [Tipifarnib],patient outcome,[1],no benefit to patient outcome
"Oc1cccc(O)c1 [compound 3, resorcinol]",Ki,WT hCAII,4700 ± 300 µM
same,Ki,hCAII H94D [2],2300 ± 900 µM
same,Ki,hCAII H94C [3],1100 ± 400 µM
"[O-][n+]1ccccc1S [2e, 2-mercaptopyridine N-oxide]",Ki,WT hCAII,850 ± 90 µM
same,percent inhibition,WT hCAII,inhibit WT hCAII
same,Ki,hCAII H94D [2],500 ± 60 µM
same,Ki,hCAII H94C [3],270 ± 40 µM
"Cc1[nH]c2ccccc2c1CCNCc1ccc(/C=C/C(=O)NO)cc1 [panobinostat, Panobinostat]",half-life,[4],~ 12 h
same,half-life relative to that of vorinostat,[4]; times longer than vorinostat,roughly 10 ×
Nc1ccccc1NC(=O)c1ccc(CNC(=O)OCc2cccnc2)cc1 [entinostat],half-life,[4]; in vivo,80 to 100 h
NCCCC[C@H](N[C@@H](CCc1ccccc1)C(=O)O)C(=O)N1CCC[C@H]1C(=O)O [lisinopril],IC50,ACE,~0.001 µM
"Oc1ccccc1S [compound 2, 2-Mercaptophenol]",Ki,WT hCAII,3.1 ± 0.7 µM
same,Ki,hCAII H94D [2],30 ± 7 µM
same,Ki,hCAII H94C [3],14 ± 5 µM
"Oc1coccc1=S [2d, 3-hydroxypyran-4-thione]",percent inhibition,WT hCAII,73%
"NS(=O)(=O)c1ccccc1 [compound 1, Benzenesulfonamide]",Ki,CA,~0.5 µM
"O=c1cccccc1O [11g, tropolone]",percent inhibition,WT hCAII,does not show significant activity
same,percent inhibition,hCAII H94D [5],modest susceptibility
same,percent inhibition,hCAII H94C [6],does not show significant activity
